US7956085B2, “1,4-benzothiepine 1,1-dioxide derivatives substituted by benzyl radicals, method for their preparation, pharmaceuticals comprising these compounds, and the use thereof” (Sanofi-Aventis Deutschland GmbH, priority 2006, dated 2011)

Molecular target: T1, human IBAT (Homo sapiens, UniProt Q12908)
T1 construct: Bases 599 to 1645 correspond to the complete coding region of human IBAT; expressed in transfected cells
T1 sequence (Q12908 1-348): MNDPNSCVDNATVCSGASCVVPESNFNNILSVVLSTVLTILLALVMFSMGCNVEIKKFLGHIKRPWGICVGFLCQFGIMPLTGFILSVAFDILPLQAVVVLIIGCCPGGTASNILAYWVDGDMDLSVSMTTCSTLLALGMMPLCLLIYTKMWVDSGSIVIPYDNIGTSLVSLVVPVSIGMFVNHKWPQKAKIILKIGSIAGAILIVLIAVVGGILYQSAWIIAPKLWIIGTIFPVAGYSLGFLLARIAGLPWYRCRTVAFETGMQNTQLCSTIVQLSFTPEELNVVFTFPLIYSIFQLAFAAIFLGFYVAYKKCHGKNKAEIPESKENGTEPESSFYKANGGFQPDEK
Assay: In vitro IBAT inhibition assay: IBAT-dependent uptake of [3H]-taurocholic acid into CHO-hIBAT cells
Assay type: cell-based
Settings: 10 μM taurocholic acid, 60 min at room temperature, read-out: IC-50 (human IBAT)
Source text: Preparation and Procedure for the In Vitro IBAT Inhibition Assay:
1. Cloning of an Expression Vector for Human IBAT
The cDNA (complementary deoxyribonucleic acid) of human IBAT was cloned by standard methods of molecular biology as described for example in Molecular Cloning: A Laboratory Manual by Joseph Sambrook and David Russell, and introduced into the pcDNA1 vector from Invitrogen. […] Bases 599 to 1645 correspond to the complete coding region of human IBAT.
2. Preparation of a Recombinant Cell Line with Constitutive Expression of Human IBAT
The expression vector for human IBAT was introduced by stable transfection into CHO (chinese hamster ovary) cells. To select single cell clones, 400 μg/ml Geneticin was added to the cell culture medium (Ham's F12 medium supplemented with 10% fetal calf serum, 100 units/ml penicillin, 100 units/ml streptomycin). The functionality of the single cell clones resulting from the selection was assayed via their uptake activity for radiolabeled taurocholic acid ([^3H]-TCA). The cell clone with the highest uptake activity for [^3H]-TCA, referred to hereinafter as CHO-hIBAT, was selected for the further assays and further cultured in the presence of 400 μg/ml Geneticin.
3. Measurement of The Inhibitory Effect of The Compound of The Invention on The IBAT-Dependent Uptake of Taurocholic Acid into Cells
CHO-hIBAT cells were seeded in a concentration of 40 000 cells per well in poly-D-lysine-coated 96-well plates in cell culture medium and cultured for 24 h. The cells were then washed once with sodium-free transport assay buffer (140 mM choline chloride, 2 mM potassium chloride, 1 mM magnesium chloride, 1 mM calcium chloride, 10 mM HEPES/Tris, pH 7.5) and subsequently incubated either with sodium-free transport assay buffer as negative control or with sodium-containing transport assay buffer (140 mM sodium chloride, 2 mM potassium chloride, 1 mM magnesium chloride, 1 mM calcium chloride, 10 mM HEPES/Tris, pH 7.5) as positive control at room temperature for 30 min. At the same time, the assay wells were also incubated in the presence of the compound to be investigated in varying concentration in sodium-containing transport assay buffer at room temperature for 30 min. The test substances were appropriately diluted in transport assay buffer (40 μl/well) starting from a 10 mM stock solution in dimethyl sulfoxide. The assay was then started by adding 10 μl/well of a mixture of radiolabeled taurocholic acid ([^3H]-TCA) and unlabeled taurocholic acid. The final concentration of taurocholic acid in the assay was 10 μM. After an incubation time of 60 min at room temperature, the reaction was stopped by adding 100 μl/well of sodium-free transport assay buffer (4° C.), and each well was washed three times with sodium-free transport assay buffer. Finally, 100 μl of scintillation fluid were added to each well, and the radioactivity taken up into the cells was determined in a MicroBeta Scintillation Microplate Reader from Wallac.
The half-maximum inhibitory effect of the test compound (IC50 value, inhibitory concentration 50) was determined in the following way: • 1. Determination of the value for 0% inhibition. This is the measurement in the absence of substance, measured in sodium-containing transport assay buffer. • 2. Determination of the value for 100% inhibition. This is the measurement in the absence of substance, measured in sodium-free transport assay buffer. • 3. Calculation of the percentage inhibitions of those measurements carried out in the presence of various concentrations of the compound to be investigated. It was then possible to find therefrom the concentration of the compound which reduces the uptake of taurocholic acid by 50% (IC50 value).

| Structure (SMILES) | IC50 [nM] |
| --- | --- |
| CCCC[C@]1(CC)CS(=O)(=O)c2ccc(N(C)C)cc2[C@@H](c2cccc(NC(=O)N[C@@H]3O[C@H](CO)[C@@H](O)[C@H](OCc4ccccc4)[C@H]3O)c2)[C@H]1O [Example 1] | 4.4 |
| CCCCC1(CCCC)CS(=O)(=O)c2ccc(N(C)C)cc2[C@@H](c2cccc(NC(=O)N[C@@H]3O[C@H](CO)[C@@H](O)[C@H](OCc4ccccc4)[C@H]3O)c2)[C@H]1O [Example 2] | 6.9 |
| CCCC[C@]1(CC)CS(=O)(=O)c2ccc(N(C)C)cc2[C@@H](c2cccc(NC(=O)N[C@@H]3O[C@H](COCc4ccccc4)[C@@H](O)[C@H](OCc4ccccc4)[C@H]3O)c2)[C@H]1O [Example 3] | 3.5 |
| CCCC[C@]1(CC)CS(=O)(=O)c2ccc(N(C)C)cc2[C@@H](c2cccc(NC(=O)N[C@@H]3O[C@H](COS(=O)(=O)O)[C@@H](O)[C@H](OCc4ccccc4)[C@H]3O)c2)[C@H]1O [Example 4] | 2.4 |
| CCCC[C@]1(CC)CS(=O)(=O)c2ccc(N(C)C)cc2[C@@H](c2cccc(NC(=O)N[C@@H]3O[C@H](COS(=O)(=O)O)[C@@H](OS(=O)(=O)O)[C@H](OCc4ccccc4)[C@H]3O)c2)[C@H]1O [Example 5] | 2 |
| CCCCC1(CCCC)CS(=O)(=O)c2ccc(N(C)C)cc2[C@@H](c2cccc(NC(=O)N[C@@H]3O[C@H](COS(=O)(=O)O)[C@@H](O)[C@H](OCc4ccccc4)[C@H]3O)c2)[C@H]1O [Example 6] | 10.7 |
